Assay type in all cases: binding
Assay [1] concerns the target T1, TYK2 (JH1domain-catalytic) (Homo sapiens, UniProt P29597).
T1 sequence (P29597 897-1176 limits assumed): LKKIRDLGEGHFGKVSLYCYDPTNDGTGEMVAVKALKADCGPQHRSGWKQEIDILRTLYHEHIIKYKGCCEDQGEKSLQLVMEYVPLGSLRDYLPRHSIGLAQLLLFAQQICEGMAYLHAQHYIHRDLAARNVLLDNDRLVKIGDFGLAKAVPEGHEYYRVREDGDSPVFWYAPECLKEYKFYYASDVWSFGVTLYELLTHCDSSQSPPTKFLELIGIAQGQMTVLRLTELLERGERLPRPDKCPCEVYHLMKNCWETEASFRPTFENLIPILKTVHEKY
In words: KinomeScan.

The target of a further assay is BLK (Homo sapiens, UniProt P51451). Put plainly: KinomeScan.
The target of assay [2] is Bruton's tyrosine kinase (Btk) kinase domain (Homo sapiens, UniProt Q06187). In words: ITC titration.
Chain of Bruton's tyrosine kinase (Btk) kinase domain (Q06187 387-569): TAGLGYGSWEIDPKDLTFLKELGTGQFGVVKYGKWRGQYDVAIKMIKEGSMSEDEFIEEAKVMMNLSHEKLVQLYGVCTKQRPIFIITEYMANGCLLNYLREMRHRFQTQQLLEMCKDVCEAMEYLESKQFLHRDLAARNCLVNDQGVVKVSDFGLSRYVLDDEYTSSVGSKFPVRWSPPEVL

Chain of BLK (P51451 2-505): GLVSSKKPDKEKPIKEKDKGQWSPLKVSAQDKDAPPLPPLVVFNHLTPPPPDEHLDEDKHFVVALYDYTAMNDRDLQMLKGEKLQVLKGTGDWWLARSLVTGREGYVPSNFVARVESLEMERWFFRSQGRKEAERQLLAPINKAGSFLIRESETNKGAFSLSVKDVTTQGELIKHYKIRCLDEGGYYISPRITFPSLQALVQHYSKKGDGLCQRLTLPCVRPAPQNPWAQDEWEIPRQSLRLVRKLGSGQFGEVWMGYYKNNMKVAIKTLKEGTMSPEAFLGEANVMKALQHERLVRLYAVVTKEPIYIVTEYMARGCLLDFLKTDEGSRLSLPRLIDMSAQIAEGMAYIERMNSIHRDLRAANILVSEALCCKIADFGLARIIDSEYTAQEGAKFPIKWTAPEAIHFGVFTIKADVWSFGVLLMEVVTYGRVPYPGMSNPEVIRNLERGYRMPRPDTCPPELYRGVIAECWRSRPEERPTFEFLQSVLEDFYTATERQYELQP

With `c1nc2c(Nc3ccc4c(c3)OCCO4)nc(Nc3ccc4c(c3)OCCO4)nc2[nH]1` [L6, N2,N6-bis(2,3-dihydrobenzo[b][1,4]dioxin-6-yl)-9H-purine-2,6-diamine], the activity at 10 µM in assay [1] is 0.8%; on BLK it was 0.4%. Besides, in assay [2], the Kd worked out at 250 nM.

The values are drawn from PMC6641755 (ACS Omega, 2017).
